The source of these data is patent US20230416225A1, “DIAMINOPYRIMIDINE CARBOXAMIDE INHIBITORS OF HPK1” (MERCK SHARP & DOHME LLC, priority 2020, published 2023).

The structures appear in SMILES notation.

The experiment concerns the target T1, Human HPK1, catalytic domain (Homo sapiens, UniProt Q92918).
T1 construct: purchased Carna
T1 sequence (Q92918 1-346): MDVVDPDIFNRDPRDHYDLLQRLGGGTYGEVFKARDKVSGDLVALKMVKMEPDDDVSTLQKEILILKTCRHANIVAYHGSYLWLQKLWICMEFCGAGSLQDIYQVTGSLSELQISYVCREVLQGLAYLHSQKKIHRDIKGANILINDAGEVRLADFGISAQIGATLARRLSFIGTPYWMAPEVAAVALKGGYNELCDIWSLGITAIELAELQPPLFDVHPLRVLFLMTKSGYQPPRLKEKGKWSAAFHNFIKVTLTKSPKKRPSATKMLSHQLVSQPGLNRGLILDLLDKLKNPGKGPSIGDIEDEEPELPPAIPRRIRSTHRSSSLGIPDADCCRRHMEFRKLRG
Briefly: HPK1-SLP76 TR-FRET assay. Format: biochemical. As to conditions: 75 pM HPK1, 10 uM ATP, 10 nM SLP76, 30 min compound pre-incubation. (In general: Time-resolved FRET reads energy transfer from a long-lived donor to a nearby acceptor.)
On to `NC(=O)c1cnc(Nc2ccc(CC(F)(F)F)cc2)nc1Nc1cccc2c1CCNC2=O` [Example 25-44, 4-[(1-oxo-1,2,3,4-tetrahydroisoquinolin-5-yl)amino]-2-{[4-(2,2,2-trifluoroethyl)phenyl]amino}pyrimidine-5-carboxamide], for which the half-inhibitory concentration (IC50) (as a rule, the concentration needed to halve the response being measured) amounted to 1.95 nM.

`COc1ncccc1Nc1ncc(C(N)=O)c(Nc2cccc3c2CCNC3=O)n1` [Example 25-45, 2-[(2-methoxypyridin-3-yl)amino]-4-[(1-oxo-1,2,3,4-tetrahydroisoquinolin-5-yl)amino]pyrimidine-S-carboxamide] displayed an IC50 of 41.3 nM. Against the preceding compound, the IC50 is about 21-fold higher. On to `COc1cc2c(cc1Nc1ncc(C(N)=O)c(NC3CCCCCC3)n1)CN(C)CC2` [Example 26-1, 4-(cycloheptylamino)-2-[(6-methoxy-2-methyl-1,2,3,4-tetrahydroisoquinolin-7-yl)amino]pyrimidine-5-carboxamide], for which half-maximal inhibition (IC50) was put at 0.26 nM. On to `COc1cc2c(cc1Nc1ncc(C(N)=O)c(NC3CCCCC3)n1)CN(C)CC2` [Example 26-2, 4-(cyclohexylamino)-2-[(6-methoxy-2-methyl-1,2,3,4-tetrahydroisoquinolin-7-yl)amino]pyrimidine-5-carboxamide], for which the IC50 was 0.6 nM. In turn, `COc1cc2c(cc1Nc1ncc(C(N)=O)c(NC3C4CC3C4)n1)CN(C)CC2` (stereo not shown) [Example 26-4, 4-[(bicyclo[1.1.1]pentan-2-yl)amino]-2-[(6-methoxy-2-methyl-1,2,3,4-tetrahydroisoquinolin-7-yl)amino]pyrimidine-5-carboxamide] came in with an IC50 of 1.33 nM. This IC50 is about 2.2-fold higher than that of the compound before. The same measure for `COc1cc2c(cc1Nc1ncc(C(N)=O)c(N[C@H]3CC[C@@H](N)CC3)n1)CN(C)CC2` [Example 26-5, 4-[(cis-4-aminocyclohexyl)amino]-2-[(6-methoxy-2-methyl-1,2,3,4-tetrahydroisoquinolin-7-yl)amino]pyrimidine-5-carboxamide]: 9.79 nM; for `COc1cc2c(cc1Nc1ncc(C(N)=O)c(N[C@H](C)C3CCCCC3)n1)CN(C)CC2` [Example 26-6, 4-{[(1R)-1-cyclohexylethyl]amino}-2-[(6-methoxy-2-methyl-1,2,3,4-tetrahydroisoquinolin-7-yl)amino]pyrimidine-5-carboxamide]: 1.32 nM; for `COc1cc2c(cc1Nc1ncc(C(N)=O)c(N[C@@H](C)C3CCCCC3)n1)CN(C)CC2` [Example 26-7, 4-{[(1S)-1-cyclohexylethyl]amino}-2-[(6-methoxy-2-methyl-1,2,3,4-tetrahydroisoquinolin-7-yl)amino]pyrimidine-5-carboxamide]: 12 nM.

Compound `COc1cc2c(cc1Nc1ncc(C(N)=O)c(N[C@@H]3COC[C@H]3SC)n1)CN(C)CC2` [Example 26-8, 2-[(6-methoxy-2-methyl-1,2,3,4-tetrahydroisoquinolin-7-yl)amino]-4-{[(3R,4S)-4-(methylsulfanyl)oxolan-3-yl]amino}pyrimidine-5-carboxamide] displayed an IC50 of 0.95 nM. Against the preceding compound, the IC50 is about 13-fold lower. The same measure for `COc1cc2c(cc1Nc1ncc(C(N)=O)c(NCc3cccc(F)c3F)n1)CN(C)CC2` [Example 26-9, 4-{[(2,3-difluorophenyl)methyl]amino}-2-[(6-methoxy-2-methyl-1,2,3,4-tetrahydroisoquinolin-7-yl)amino]pyrimidine-5-carboxamide]: 0.95 nM; for `COc1cc2c(cc1Nc1ncc(C(N)=O)c(NC3CC[C@H]4NCCC[C@@H]34)n1)CN(C)CC2` (stereo partly drawn) [Example 26-10, 2-[(6-methoxy-2-methyl-1,2,3,4-tetrahydroisoquinolin-7-yl)amino]-4-{[(4aR,7aR)-octahydro-1H-cyclopenta[b]pyridin-5-yl]amino}pyrimidine-5-carboxamide]: 1.06 nM. The same measure for `COc1cc2c(cc1Nc1ncc(C(N)=O)c(NC3CCN(C4CC4)C3)n1)CN(C)CC2` (stereo not shown) [Example 26-11, 4-[(1-cyclopropylpyrrolidin-3-yl)amino]-2-[(6-methoxy-2-methyl-1,2,3,4-tetrahydroisoquinolin-7-yl)amino]pyrimidine-5-carboxamide]: 26 nM; for `COc1cc2c(cc1Nc1ncc(C(N)=O)c(NC3CCC(c4ccccc4)C3)n1)CN(C)CC2` (stereo not shown) [Example 26-12, 2-[(6-methoxy-2-methyl-1,2,3,4-tetrahydroisoquinolin-7-yl)amino]-4-[(3-phenylcyclopentyl)amino]pyrimidine-5-carboxamide]: 18.1 nM.

Compound `COC(=O)C1CC2CC(CC(Nc3nc(Nc4cc5c(cc4OC)CCN(C)C5)ncc3C(N)=O)C2)C1` (stereo not shown) [Example 26-13, methyl 7-({5-carbamoyl-2-[(6-methoxy-2-methyl-1,2,3,4-tetrahydroisoquinolin-7-yl)amino]pyrimidin-4-yl}amino)bicyclo[3.3.1]nonane-3-carboxylate] gave an IC50 of 0.6 nM.

As to `COc1cc2c(cc1Nc1ncc(C(N)=O)c(NC3C[C@@H]4CC[C@H]3C4)n1)CN(C)CC2` (stereo partly drawn) [Example 26-14, 4-{[(1S,4R)-bicyclo[2.2.1]heptan-2-yl]amino}-2-[(6-methoxy-2-methyl-1,2,3,4-tetrahydroisoquinolin-7-yl)amino]pyrimidine-5-carboxamide], the IC50 is 0.14 nM.

`COc1cc2c(cc1Nc1ncc(C(N)=O)c(NC3CC4C5CCC(C5)C34)n1)CN(C)CC2` (stereo not shown) [Example 26-15, 2-[(6-methoxy-2-methyl-1,2,3,4-tetrahydroisoquinolin-7-yl)amino]-4-[(tricyclo[4.2.1.0~2,5~]nonan-3-yl)amino]pyrimidine-5-carboxamide]: the concentration for half-maximal inhibition (IC50) amounted to 0.25 nM. On to `COc1cc2c(cc1Nc1ncc(C(N)=O)c(NC3CCC(C(F)(F)F)CC3)n1)CN(C)CC2` (stereo not shown) [Example 26-16, 2-[(6-methoxy-2-methyl-1,2,3,4-tetrahydroisoquinolin-7-yl)amino]-4-{[4-(trifluoromethyl)cyclohexyl]amino}pyrimidine-5-carboxamide], for which inhibition was half-maximal at 11.9 nM (IC50).

The compound `COc1cc2c(cc1Nc1ncc(C(N)=O)c(N[C@H]3CC[C@@H](N(C)C)CC3)n1)CN(C)CC2` [Example 26-17, 4-{[cis-4-(dimethylamino)cyclohexyl]amino}-2-[(6-methoxy-2-methyl-1,2,3,4-tetrahydroisoquinolin-7-yl)amino]pyrimidine-5-carboxamide] returned an IC50 of 60.2 nM. On to `COc1cc2c(cc1Nc1ncc(C(N)=O)c(NCc3ccccc3OC(F)(F)F)n1)CN(C)CC2` [Example 26-18, 2-[(6-methoxy-2-methyl-1,2,3,4-tetrahydroisoquinolin-7-yl)amino]-4-({[2-(trifluoromethoxy)phenyl]methyl}amino)pyrimidine-5-carboxamide], for which the IC50 turned out to be 0.57 nM. In turn, `COc1cc2c(cc1Nc1ncc(C(N)=O)c(N[C@@H](C)c3cccc(F)c3F)n1)CN(C)CC2` [Example 26-19, 4-{[(1S)-1-(2,3-difluorophenyl)ethyl]amino}-2-[(6-methoxy-2-methyl-1,2,3,4-tetrahydroisoquinolin-7-yl)amino]pyrimidine-5-carboxamide] came in with a half-inhibitory concentration (IC50) of 2.49 nM. On to `COc1cc2c(cc1Nc1ncc(C(N)=O)c(N[C@H](C)c3cccc(F)c3F)n1)CN(C)CC2` [Example 26-20, 4-{[(1R)-1-(2,3-difluorophenyl)ethyl]amino}-2-[(6-methoxy-2-methyl-1,2,3,4-tetrahydroisoquinolin-7-yl)amino]pyrimidine-5-carboxamide], for which the IC50 turned out to be 0.45 nM.

With `COc1cc2c(cc1Nc1ncc(C(N)=O)c(NCc3ccccc3C(F)(F)F)n1)CN(C)CC2` [Example 26-21, 2-[(6-methoxy-2-methyl-1,2,3,4-tetrahydroisoquinolin-7-yl)amino]-4-({[2-(trifluoromethyl)phenyl]methyl}amino)pyrimidine-5-carboxamide], the midpoint of inhibition, the IC50, lay at 0.22 nM. Against the preceding compound, the IC50 is about 2-fold lower.

For `COc1cc2c(cc1Nc1ncc(C(N)=O)c(NC(C)c3ccccc3C(F)(F)F)n1)CN(C)CC2` (stereo not shown) [Example 26-22, 2-[(6-methoxy-2-methyl-1,2,3,4-tetrahydroisoquinolin-7-yl)amino]-4-({1-[2-(trifluoromethyl)phenyl]ethyl}amino)pyrimidine-5-carboxamide], the IC50 turned out to be 1.43 nM.

The compound `CCOc1ccccc1CNc1nc(Nc2cc3c(cc2OC)CCN(C)C3)ncc1C(N)=O` [Example 26-23, 4-{[(2-ethoxyphenyl)methyl]amino}-2-[(6-methoxy-2-methyl-1,2,3,4-tetrahydroisoquinolin-7-yl)amino]pyrimidine-5-carboxamide] yielded an IC50 of 3.69 nM. In turn, `COc1cc2c(cc1Nc1ncc(C(N)=O)c(NC3CCc4ccc(F)cc43)n1)CN(C)CC2` (stereo not shown) [Example 26-25, 4-[(6-fluoro-2,3-dihydro-1H-inden-1-yl)amino]-2-[(6-methoxy-2-methyl-1,2,3,4-tetrahydroisoquinolin-7-yl)amino]pyrimidine-5-carboxamide] had an IC50 of 0.22 nM.

`COc1cc2c(cc1Nc1ncc(C(N)=O)c(N[C@H]3C[C@H]4CC[C@@H](C3)N4C)n1)CN(C)CC2` [Example 26-26, 2-[(6-methoxy-2-methyl-1,2,3,4-tetrahydroisoquinolin-7-yl)amino]-4-{[(1R,3r,5S)-8-methyl-8-azabicyclo[3.2.1]octan-3-yl]amino}pyrimidine-5-carboxamide] showed an IC50 of 3.31 nM. The compound `COc1cc2c(cc1Nc1ncc(C(N)=O)c(NC3CC4CCC(C3)N4)n1)CN(C)CC2` (stereo not shown) [Example 26-27, 4-[(8-azabicyclo[3.2.1]octan-3-yl)amino]-2-[(6-methoxy-2-methyl-1,2,3,4-tetrahydroisoquinolin-7-yl)amino]pyrimidine-5-carboxamide] gave an IC50 of 106 nM.

`COC[C@H]1CCC[C@H]1Nc1nc(Nc2cc3c(cc2OC)CCN(C)C3)ncc1C(N)=O` [Example 26-28, 4-{[(1R,2S)-2-(methoxymethyl)cyclopentyl]amino}-2-[(6-methoxy-2-methyl-1,2,3,4-tetrahydroisoquinolin-7-yl)amino]pyrimidine-5-carboxamide] displayed an IC50 of 4.92 nM. This IC50 lies about 22-fold lower than the previous one.
